Holding throughout (assay type): in vivo
Assay [1] has as its system Meloidogyne incognita J2s. Briefly: B. subtilis and C. reinhardtii plant protection assay, M. incognita. As to conditions: tomato. On the procedure: (§1) Tomato seeds were sterilised with 2.5% NaOCl for 15 minutes, washed 5 times in ddH2O and germinated on 0.5% Murashige and Skoog plates at 23° C. […] Invasion assays were performed by mixing 500 pre-treated M. incognita or G. pallida J2s with agar slurry and a single tomato seedling (2 days post germination) in a 6 well plate. Assays were left at 23° C. for 24 hours in the case of M. incognita and at 18° C. for 24 hours in the case of G. pallida under a 16 hour light and 8 hour darkness cycle. Seedlings were stained using acid fuschin [69] and the number of nematodes within the roots counted.
B. subtilis were grown overnight in LB media containing ampicillin (100 μg/ml) at 37° C. with shaking, and harvested in the log phase of growth determined by measuring OD600nm. Five ml of culture at 0.5 OD was spun down and the pellet mixed with 3 ml of agar slurry and 500 J2s from either G. pallida or M. incognita. C. reinhardtii clones were grown at 23° C. with shaking, cultures in the log phase were measured at OD750 and 5 ml of culture at 0.5 OD was pelleted by centrifugation. C. reinhardtii pellets were mixed with 3 ml of agar slurry and 500 J2s from either G. pallida or M. incognita. Plant invasion assays were performed as described above.
uNLP secretion inserts, and vector pChlamy_3 were digested using Kpnl/Xbal (New England Biolabs, USA), ligated using T4 ligase (New England Biolabs, USA), and cloned into Escherichia coli One Shot® TOP10 chemically competent cells (Life Technologies, USA) following manufacturer's instructions. Ampicillin (Sigma Aldrich, USA) was used to select E. coli containing the pChlamy_3 plasmid, which was subsequently extracted using the High Pure Plasmid Isolation Kit (Roche) and sequenced (Eurofins Genomics, UK) to identify correct clones. C. reinhardtii was transformed by electroporation following manufacturer's instructions (GeneArt® Chlamydomonas Engineering Kit, Life Technologies) and individual colonies grown on TAP-Agar-Hygromycin plates (10 μg/mL) (Sigma Aldrich, USA) at 23° C. Colonies were picked and grown at 23° C. in 100 ml TAP growth media (Invitrogen, USA) with constant orbital agitation. qRT-PCR was performed to identify clones with the highest level of uNLP expression, which were then selected for downstream assays (pChlamy universal FWD: […], nlp-15b REV: CTACTAGTCGAGGCCGGTA; Mi-nlp-9f REV: GAACGGGCGGATGAAGTAG).
uNLP secretion inserts, and vector pBE-S were digested using Xbal/Mlul (New England Biolabs, USA), ligated using T4 ligase (New England Biolabs, USA), and cloned into E. coli One Shot® TOP10 chemically competent cells (Life Technologies, USA) following manufacturer's instructions. […]

For assay [2], the system named is Steinernema carpocapsae infective juveniles. Briefly: S. carpocapsae host-finding assay (non-target nematode). The following applies: S. carpocapsae IJs, 100 μM, 24 h; no statistically significant impact; control 0.2315. As to the method: S. carpocapsae were cultured in Galleria mellonella at 23° C. Infective juveniles (IJs) were collected using a White trap in PBS. Freshly emerged IJs were used for each assay. 100 IJs were incubated for 24 hours in 100 μM of selected uNLPs, and host-finding assays performed as in Morris et al..

Assay [3] relates to Meloidogyne incognita J2s. Description: Tomato invasion assay, M. incognita J2s. As to conditions: 100 μM uNLP, 24 h, tomato seedlings, normalised to negative control. As to the method: (§2) Predicted uNLPs from both M. incognita and G. pallida were synthesised by EZBiolab and dissolved into pH adjusted ddH2O to make a 5 mM stock which was aliquoted and stored at −20° C. J2s of both M. incognita and G. pallida were incubated for 24 hours in 200 μl of each peptide in a 24 well plate (SPL Lifesciences, South Korea) at a defined concentration.
as §1

For assay [4], the system named is mixed-stage Caenorhabditis elegans. Briefly: C. elegans chemotaxis assay (non-target nematode). The following applies: 100 μM, 24 h, no statistically significant impact; for chemotaxis index (Cl) towards sodium acetate: control 0.4269; for chemotaxis index (Cl) towards pyrazine: control 0.4904; for chemotaxis index (Cl) towards diacetyl: control 0.6638; for chemotaxis index (Cl) towards benzaldehyde: control 0.7026. On the procedure:
C. elegans wild-type N2 Bristol strain were obtained from the C. elegans Genomics Center and maintained on a Escherichia coli (strain OP50) lawn on nematode growth medium (NGM) agar plates (3 g/l NaCl, 17 g/l agar, 2.5 g/l peptone, 5 mg/l cholesterol, 25 mM KH2PO4 (pH 6.0), 1 mM CaCl2, 1 mM MgSO4) at 20° C.. Chemotaxis assays were performed in a 9 cm diameter Petri dish on NGM agar which was split into a positive and negative side with a central ‘dead zone’ of 1.5 cm diameter. 100 mixed-staged C. elegans were washed three times in M9 buffer and soaked in 100 μM PPN uNLP, or M9 vehicle control for 24 hours. 2 μl of 50 mM sodium acetate, 0.5% pyrazine, 0.5% benzaldehyde or 0.5% diacetyl was spotted onto the positive side, 2 μl of ddH2O was spotted onto the negative side. Pyrazine, benzaldehyde and diacetyl volatile attractants were assayed immediately whereas the water soluble sodium acetate was assayed 18 hours following addition to the plate. Assays were maintained in the dark at 20° C., and counted after 1 hour.

The subject of assay [5] is Meloidogyne incognita infective stage juveniles (J2s). Briefly: Chemosensory (chemotaxis) assay towards root exudate, M. incognita J2s. The following applies: M. incognita J2s, 100 μM uNLP, 24 h; mean+/-SEM. On the procedure:
as §2
A 60 mm Petri dish was divided into two segments, a positive and a negative side, with a 0.5 cm ‘dead zone’ either side of the centre point. The petri dish was filled with 15 ml of 0.25% w/v agar which was allowed to solidify. 3 ml of 0.25% w/v agar slurry in spring water (pH 7, agitated with a magnetic stirrer for several hours to give a smooth consistency) was added to the petri dish and spread evenly over the surface. Root diffusate (attractant) and water only (control) 0.25% agar plugs were embedded in the agar slurry, either side of the assay arena. Root diffusate was collected from 10 tomato plants, aged 3-6 weeks in 1 litre pots, by pouring 500 ml of ddH2O through the soil three times. Diffusate from each plant was combined, filter sterilised and stored at 4° C. for a maximum of 1 month. Root diffusate agar plugs were made by melting 1.25% agar in ddH2O, cooling to 50° C. before mixing with 4 parts of root diffusate. The agar was then allowed to solidify at room temperature. 100 uNLP pre-treated M. incognita or G. pallida J2s were added by pipette to the centre of the plate. J2s which moved out of the ‘dead zone’ after 3 hours were counted and their location (+/−) scored. The distribution of J2s were used to create a chemotaxis index for each plate, which formed one replicate, a total of 10 replicates where completed for each uNLP treatment.

Assay [6] deals with Meloidogyne incognita J2s. Briefly: Serotonin-induced stylet thrusting assay, M. incognita J2s. The following applies: 100 μM uNLP, 24 h, 5 mM serotonin. As to the method:
as §2
Stylet thrusting assays where performed by incubating 100 M. incognita or G. pallida J2s for 15 minute in 5 mM or 2 mM serotonin (Sigma Aldrich, USA), respectively. J2s were placed on a glass slide and stylet thrusts were counted for randomly selected J2s, for 1 minute each. Counting took place for a maximum of 15 minutes. Longer incubations yielded inconsistent results. At least 30 J2s were counted for each neuropeptide treatment.

“GGGRYFIRPFADQ [Mi-NLP-9f, predicted unamidated NLP of Meloidogyne incognita]”: the “M. incognita invasion relative to untransformed C. reinhardtii” value in assay [1] (C. reinhardtii cultures secreting the uNLP) came to 10.32%+/−10.32. Besides, the “insect host-finding index (Cl) towards Galleria mellonella” value in assay [2] is reported as 0.2462+/−0.070. The “host invasion compared to controls” value in assay [3] is reported as 28.22%+/−5.253. Further, in assay [4], the “chemotaxis index (Cl) towards sodium acetate” value is 0.5261+/−0.064, the “chemotaxis index (Cl) towards pyrazine” value was 0.4599+/−0.087, the “chemotaxis index (Cl) towards diacetyl” value is 0.6+/−0.092 and the “chemotaxis index (Cl) towards benzaldehyde” value was 0.7463+/−0.047. The “chemotaxis index (Cl) towards root exudate” value in assay [5] is on record as −0.26+/−0.224.

For “MVSWQPV [Mi-NLP-40, predicted unamidated NLP of Meloidogyne incognita]”, in assay [1] (B. subtilis cultures secreting the uNLP), the “M. incognita invasion relative to control” value came out at 23.72%+/−5.448. The “rate of serotonergic-induced stylet thrusting compared with controls” value in assay [6] is recorded as 210%+/−21.35. For the same substance, the “insect host-finding index (Cl) towards Galleria mellonella” value in assay [2] was 0.3057+/−0.082. For the same substance, in assay [4], the “chemotaxis index (Cl) towards sodium acetate” value is 0.4820+/−0.115, the “chemotaxis index (Cl) towards pyrazine” value was 0.5018+/−0.039, the “chemotaxis index (Cl) towards diacetyl” value is reported as 0.5858+/−0.097 and the “chemotaxis index (Cl) towards benzaldehyde” value is recorded as 0.6686+/−0.065. Besides, the “chemotaxis index (Cl) towards root exudate” value in assay [5] is on record as −0.04+/−0.04726.

The values above are taken from patent publication US20200123208A1, “PEPTIDES AND NEMATICIDAL COMPOSITIONS” (priority 2017, published 2020).
